In one assay the target is T1, human cathepsin F (Homo sapiens, UniProt Q9UBX1).
T1 sequence (Q9UBX1 271-484): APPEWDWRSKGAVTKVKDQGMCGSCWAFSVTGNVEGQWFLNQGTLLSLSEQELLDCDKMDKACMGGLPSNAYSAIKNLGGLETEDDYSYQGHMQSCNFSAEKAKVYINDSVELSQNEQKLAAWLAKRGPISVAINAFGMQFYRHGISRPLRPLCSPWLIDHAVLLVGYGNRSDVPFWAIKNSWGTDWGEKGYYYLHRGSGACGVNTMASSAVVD
Briefly: Cathepsin F assay (hCat F). The conditions noted are these: Z-Phe-Arg-AMC substrate, pH 5.5, 15 min preincubation; read-out: hCat F (IP (nM)). The assay is classed as biochemical. Here is the method: Cathepsin F assay (hCat F)
(§1) Serial dilutions (1/3) from 500 μM down to 0.025 μM of test compounds were prepared in dimethyl sulfoxide (DMSO). Then 0.5 μL of DMSO from each dilution were added to 18.75 μL of assay buffer (MES, 50 mM (pH 5.5); EDTA, 2.5 mM; DTT, 2.5 mM and 10% DMSO) containing human cathepsin F (10 nM) in assay buffer solution. The assay solutions were mixed for 5-10 seconds on a shaker plate and incubated for 15 minutes at room temperature. Z-Phe-Arg-AMC (8 μM) in 6.25 μL of assay buffer was added to the assay solutions. Hydrolysis of the coumarin leaving group (AMC) was followed by spectrofluorometry (Exλ=360 nm; Emλ=460 nm) for 20 minutes. Percent of inhibition were calculated by fitting experimental values to standard mathematical model for dose response curve.

The next assay has as its target human cathepsin K (UniProt P43236). Nature of the assay: Cathepsin K Assay (hrbCat K). It is filed as biochemical. Particulars: Z-Leu-Arg-AMC substrate, pH 5.5, 15 min preincubation; read-out: hrbCat K (IP (nM)). How it is done:
Cathepsin K Assay (hrbCat K)
as §1, with “Then” for “Serial dilutions (1/3) from 500 μM down to 0.025 μM of test compounds were prepared in dimethyl sulfoxide (DMSO). Then”, “K (0.4” for “F (10”, “Z-Leu-Arg-AMC” for “Z-Phe-Arg-AMC”, “30” for “20”

Molecules are shown by their SMILES. Some results are limits rather than exact numbers.

18 compounds from patent US9573913B2, “Cathepsin cysteine protease inhibitors” (Merck Sharp & Dohme Corp., priority 2013, dated 2017) can be followed below.

On to `N#CC(NC(=O)[C@@H]1CCCC[C@H]1c1nc(-c2ccc(F)cn2)sc1-c1ccc(N2CCS(=O)(=O)CC2)cc1)C1CCOCC1` (single isomer, unassigned) [Example 185, (1R,2R)-N-((R or S)-cyano(tetrahydro-2H-pyran-4-yl)methyl)-2-(5-(4-(1,1-dioxidothiomorpho-lino)phenyl)-2-(5-fluoropyridin-2-yl)thiazol-4-yl)cyclohexane-carboxamide], for which the IC50 at human cathepsin F came to 695 nM; at human cathepsin K, 1.3 nM.

With `N#CC(NC(=O)[C@@H]1CCCC[C@H]1c1nc(-c2ccc(F)cn2)sc1-c1ccc(N2CCS(=O)(=O)CC2)cc1)C1CCOCC1` (single isomer, unassigned) [Example 186, (1R,2R)-N-((S or R)-cyano(tetrahydro-2H-pyran-4-yl)methyl)-2-(5-(4-(1,1-dioxidothiomorpho-lino)phenyl)-2-(5-fluoropyridin-2-yl)thiazol-4-yl)cyclohexane-carboxamide], the IC50 was at least 10000 nM at human cathepsin F and 1900 nM at human cathepsin K.

Regarding `CC(C)C(C#N)NC(=O)[C@@H]1CCCC[C@H]1c1nc(-c2ccc(F)cn2)sc1-c1ccc(N2CCS(=O)(=O)CC2)cc1` (single isomer, unassigned) [Example 187, (1R,2R)-N-((S or R)-1-cyano-2-methylpropyl)-2-(5-(4-(1,1-dioxidothiomorpho-lino)phenyl)-2-(5-fluoropyridin-2-yl)thiazol-4-yl)cyclohexane-carboxamide], the IC50 is at least 10000 nM at human cathepsin F and 3820 nM on human cathepsin K.

With `CCC(C#N)NC(=O)[C@@H]1CCCC[C@H]1c1nc(-c2ccc(F)cn2)sc1-c1ccc(N2CCS(=O)(=O)CC2)cc1` (single isomer, unassigned) [Example 188, (1R,2R)-N-((S or R)-1-cyanopropyl)-2-(5-(4-(1,1-dioxidothiomorpho-lino)phenyl)-2-(5-fluoropyridin-2-yl)thiazol-4-yl)cyclohexane-carboxamide], the IC50 on human cathepsin F was found to be 6710 nM; at human cathepsin K, 15.3 nM.

`CC(C)C(C#N)NC(=O)[C@@H]1CCCC[C@H]1c1nc(-c2ccc(F)cn2)sc1-c1ccc(N2CCS(=O)(=O)CC2)cc1` (single isomer, unassigned) [Example 191, (1R,2R)-N-((R or S)-1-cyano-2-methylpropyl)-2-(5-(4-(1,1-dioxidothiomorpho-lino)phenyl)-2-(5-fluoropyridin-2-yl)thiazol-4-yl)cyclohexane-carboxamide]: the IC50 on human cathepsin F was 691 nM; on human cathepsin K it was 1.5 nM.

Take `CCC(C#N)NC(=O)[C@@H]1CCCC[C@H]1c1nc(-c2ccc(F)cn2)sc1-c1ccc(N2CCS(=O)(=O)CC2)cc1` (single isomer, unassigned) [Example 192, (1R,2R)-N-((R or S)-1-cyanopropyl)-2-(5-(4-(1,1-dioxidothiomorpho-lino)phenyl)-2-(5-fluoropyridin-2-yl)thiazol-4-yl)cyclohexane-carboxamide]: the IC50 on human cathepsin F amounted to 103 nM; on human cathepsin K, 0.4 nM.

As for `N#CC(CC(F)(F)F)NC(=O)[C@@H]1CCCC[C@H]1c1nc(-c2ccc(F)cn2)sc1-c1ccc(N2CCS(=O)(=O)CC2)cc1` (single isomer, unassigned) [Example 193, (1R,2R)-N-((R or S)-1-cyano-3,3,3-trifluoropropyl)-2-(5-(4-(1,1-dioxidothiomorpho-lino)phenyl)-2-(5-fluoropyridin-2-yl)thiazol-4-yl)cyclohexane-carboxamide], the IC50 was 21 nM on human cathepsin F and 0.6 nM at human cathepsin K.

With `N#CC(CC(F)(F)F)NC(=O)[C@@H]1CCCC[C@H]1c1nc(-c2ccc(F)cn2)sc1-c1ccc(N2CCS(=O)(=O)CC2)cc1` (single isomer, unassigned) [Example 194, (1R,2R)-N-((S or R)-1-cyano-3,3,3-trifluoropropyl)-2-(5-(4-(1,1-dioxidothiomorpho-lino)phenyl)-2-(5-fluoropyridin-2-yl)thiazol-4-yl)cyclohexane-carboxamide], the IC50 on human cathepsin F worked out at 1920 nM; at human cathepsin K it was 3.1 nM.

As to `CC1CC1(C#N)NC(=O)[C@@H]1CCCC[C@H]1c1nc(-c2ccc(F)cn2)sc1-c1ccc(N2CCS(=O)(=O)CC2)cc1` (single isomer, unassigned) [Example 202, (1R,2R)-N-((1S,2S or 1S,2R or 1R,2S or 1R,2R)-1-cyano-2-methylcyclopropyl)-2-(5-(4-(1,1-dioxidothiomorpho-lino)phenyl)-2-(5-fluoropyridin-2-yl)thiazol-4-yl)cyclohexane-carboxamide], the results for the IC50 on human cathepsin F and on human cathepsin K were at least 10000 nM and 6.6 nM, respectively.

For the compound `N#CC1(NC(=O)[C@@H]2C[C@@H](F)CC[C@H]2c2nc(C3CC(F)C3)sc2-c2ccc(N3CCS(=O)(=O)CC3)cc2)CC1` (single isomer, unassigned) [Example 233, (1R,2R,5S)-N-(1-cyanocyclopropyl)-2-(5-(4-(1,1-dioxidothiomorpho-lino)phenyl)-2-((1S,3S or 1R,3R)-3-fluorocyclobutyl)thiazol-4-yl)-5-fluorocyclohexane-carboxamide], the results for the IC50 at human cathepsin F and at human cathepsin K were at least 10000 nM and 6 nM, respectively.

Take `C[C@@H](C#N)NC(=O)[C@@H]1C[C@@H](F)CC[C@H]1c1nc(C2CC(F)C2)sc1-c1ccc(N2CCS(=O)(=O)CC2)cc1` (single isomer, unassigned) [Example 234, (1R,2R,5S)-N-((S)-1-cyanoethyl)-2-(5-(4-(1,1-dioxidothiomorpho-lino)phenyl)-2-((1S,3S or 1R,3R)-(3-fluorocyclobutyl)thiazol-4-yl)-5-fluorocyclohexane-carboxamide]: the values for the IC50 on human cathepsin F and at human cathepsin K were 6100 nM and 4 nM, respectively.

Take `C[C@@H](C#N)NC(=O)[C@@H]1C[C@@H](F)CC[C@H]1c1nc(C2CC(F)C2)sc1-c1ccc(N2CCS(=O)(=O)CC2)cc1` (single isomer, unassigned) [Example 236, (1R,2R,5S)-N-((S)-1-cyanoethyl)-2-(5-(4-(1,1-dioxidothiomorpho-lino)phenyl)-2-((1R,3R or 1S,3S)-(3-fluorocyclobutyl)thiazol-4-yl)-5-fluorocyclohexane-carboxamide]: the IC50 at human cathepsin F came to 4500 nM; on human cathepsin K, 3.7 nM.

For the compound `N#CC1(NC(=O)[C@@H]2CCCC[C@H]2c2nc(C3CC(F)(F)C3)sc2-c2ccc(N3CCS(=O)(=O)CC3)cc2)CC1` [Compound 1, (1R,2R)-N-(1-cyanocyclopropyl)-2-(2-(3,3-difluorocyclobutyl)-5-(4-(1,1-dioxidothiomorpholino)phenyl)thiazol-4-yl)cyclohexanecarboxamide], the IC50 at human cathepsin F is 1000 nM; at human cathepsin K, 5.8 nM.

Take `N#CC1(NC(=O)[C@@H]2CCCC[C@H]2c2nc(-c3ccc(F)cc3)sc2-c2ccc(N3CCS(=N)(=O)CC3)cc2)CC1` [Compound 5, (1R,2R)-N-(1-Cyanocyclopropyl)-2-(2-(4-fluorophenyl)-5-(4-(1-imino-1-oxidothiomorpholino)phenyl)thiazol-4-yl)cyclohexanecarboxamide]: the values for the IC50 at human cathepsin F and at human cathepsin K were 3330 nM and 1.9 nM, respectively.

`N#CC1(NC(=O)[C@@H]2CCCC[C@H]2c2nc(N3CCC(F)(F)CC3)sc2-c2ccc(N3CCS(=O)(=O)CC3)cc2)CC1` [Compound 6, (1R,2R)-N-(1-cyanocyclopropyl)-2-(2-(4,4-difluoropiperidin-1-yl)-5-(4-(1,1-dioxidothiomorpholino)phenyl)thiazol-4-yl)cyclohexanecarboxamide]: the IC50 at human cathepsin F was determined as 1000 nM; at human cathepsin K it was 3.6 nM.

With `N#CC1(NC(=O)[C@@H]2C[C@@H](F)CC[C@H]2c2nc(-c3cncc(F)c3)sc2-c2ccc(N3CCS(=O)(=O)CC3)cc2)CC1` [Compound 7, (1R,2R,5S)-N-(1-cyanocyclopropyl)-2-(5-(4-(1,1-dioxidothiomorpholino)phenyl)-2-(5-fluoropyridin-3-yl)thiazol-4-yl)-5-fluorocyclohexanecarboxamide], the IC50 came to 1920 nM on human cathepsin F and 0.9 nM on human cathepsin K.

In the case of `C[C@@H](C#N)NC(=O)[C@@H]1C[C@@H](F)CC[C@H]1c1nc(-c2ccc(F)cn2)sc1-c1ccc(N2CCS(=O)(=O)CC2)cc1` [Compound 8, (1R,2R,5S)-N—((S)-1-Cyanoethyl)-2-(5-(4-(1,1-dioxidothiomorpholino)phenyl)-2-(5-fluoropyridin-2-yl)thiazol-4-yl)-5-fluorocyclohexanecarboxamide], the IC50 on human cathepsin F is 1100 nM; at human cathepsin K it was 1.3 nM.

Turning to `Cc1nc([C@@H]2CC[C@H](F)C[C@H]2C(=O)NC2(C#N)CC2)c(-c2ccc(N3CCOCC3)cc2)s1` [Compound 9, (1R,2R,5S)-N-(1-cyanocyclopropyl)-5-fluoro-2-(2-methyl-5-(4-morpholinophenyl)thiazol-4-yl)cyclohexanecarboxamide], the IC50 on human cathepsin F is at least 10000 nM; on human cathepsin K, 44.1 nM.
